Assay: Clinical treatment of high risk vascular patients: cholesterol panel (LDL, HDL, triglycerides)
Assay type: in vivo
Conditions: for LDL lowering effects on adding adjunct: adjunct added to statin composition, Niacin 500 mg, ezetimibe 10 mg
Experimental: The protocol of the instant invention was developed for patients that are high risk for a life and/or limb threatening vascular event (MI, CVA, limb/part of limb loss, Aortic dissection/rupture, Renal infarction, etc.) such as DM type I and/or II, CAD, PVD, post MI, post CVA, Hypertriglyceridemia, Hypercholesterolemia, AAA, etc.
It is generally acknowledged that a goal for a DM/CAD patient is to have a LDL cholesterol level less than 70 mg/dL (National Cholesterol Education Program Interim Report Guidelines).
Generally, a patient should start with a low dose of one statin, the dose should then be titrated up to half a maximal dose (titrate means to start a patient at the lowest dose and increase the dose monthly based on having a patient that is less than 3× normal levels for the LFTs, the LDL cholesterol level is not to goal, and there is no positive change in signs, symptoms or studies to evaluate vascular function per disease state). At that point, the patient should be evaluated to see if the LDL cholesterol level is near the goal. If the patient is near the goal, adjuncts should be given to see if the LDL cholesterol level can be further lowered. If the patient is not near the LDL cholesterol goal after titration up to half a maximal dose, the dose of the initial statin should be reduced and a low dose second statin from the other group should be added to the regimen (i.e., if the initial statin is a hydrophilic statin, the second statin should be a lipophilic statin; and vice versa). The second statin level should be titrated up to a half maximal dose if upon taking the statin from the other group (i.e., the second statin), the LDL cholesterol level goal is still not attained. If one is near or at the LDL cholesterol level goal before or after titration of the second statin, the adjuncts can be added to further reduce the LDL cholesterol level.

Structure (SMILES) | LDL lowering effects on adding adjunct | HDL up (niacin 500 mg a day with the composition of statins) | boost to the HDL levels (niacin 500 mg to 750 mg a day, adult, with two-statin composition)
O=C1[C@H](CC[C@H](O)c2ccc(F)cc2)[C@@H](c2ccc(O)cc2)N1c1ccc(F)cc1 [ezetimibe] | amplified | – | –
O=C(O)c1cccnc1 [niacin] | amplified | at least 10% | ≥ 10%

From patent US20070208073A1, “Compositions and methods for treating cardiovascular, cerebrovascular and other vascular disease patients” (priority 2006, published 2007)
